Results from US20260295053A1, “COMPOUNDS FOR DEGRADATION AND INHIBITION OF KRAS (G12D) PROTEIN” (Shenzhen Ionova Life Science Co., Ltd., priority 2023, published 2026).

Tests used:
KRAS (G12D) = molecular target: T1, KRAS (G12D) (Homo sapiens, UniProt P01116, G12D); test: KRAS (G12D) cellular degradation assay in AsPC-1 cells; type: cell-based; settings: 24 hours, antibody fluorescence (Odyssey CLX), DC50 half-maximal degradation concentration
T1 construct: in-cell western with KRAS G12D antibody after 24 h
T1 sequence (P01116 1-188 isoform P01116-2 G12D): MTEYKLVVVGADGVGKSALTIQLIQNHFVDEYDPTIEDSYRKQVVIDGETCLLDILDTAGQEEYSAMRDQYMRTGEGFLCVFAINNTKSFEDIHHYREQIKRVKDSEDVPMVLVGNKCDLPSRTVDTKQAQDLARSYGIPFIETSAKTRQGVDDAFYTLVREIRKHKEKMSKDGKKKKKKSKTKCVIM
Summary of the method: (§1)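 Read-outs were KRAS G12D immunofluorescence against β-actin after 24 h (DC50) and CellTiter Glo luminescence after 6 days (IC50). Compounds were titrated 1:3 from […] to 1.5 nM final on AsPC-1 cells at 37 °C, 5% CO2.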

AsPC-1 cells = test: AsPC-1 cell proliferation assay (CellTiter Glo); type: cell-based; settings: 6 days
Summary of the method: as §1

Row | Structure (SMILES) | DC50 (KRAS (G12D)) [nM] | IC50 (AsPC-1 cells; Homo sapiens, ASPC1, 144 h) [nM] | IC50 (AsPC-1 cells) [nM]
1 | Cc1ncsc1-c1ccc([C@H](CO)NC(=O)[C@@H]2C[C@@H](O)CN2C(=O)[C@H](C(C)C)n2cc(-c3ccc(COc4c(-c5c(C)c(F)cc6[nH]ncc56)c(C5CC5)cc5c(N6C[C@@H]7C[C@H]6CN7)nc(OC6CCC7(CC6)COC7)nc45)cc3)nn2)cc1 [Example 63, (2S,4R)-1-((2S)-2-(4-(4-(((2-((2-oxaspiro[3.5]nonan-7-yl)oxy)-4-((1S,4S)-2,5-diazabicyclo[2.2.1]heptan-2-yl)-6-cyclopropyl-7-(6-fluoro-5-methyl-1H-indazol-4-yl)quinazolin-8-yl)oxy)methyl)phenyl)-1H-1,2,3-triazol-1-yl)-3-methylbutanoyl)-4-hydroxy-N—((R)-2-hydroxy-1-(4-(4-methylthiazol-5-yl)phenyl)ethyl)pyrrolidine-2-carboxamide] | < 10 | < 10 | –
2 | CCn1nccc1-c1ccc([C@H](CO)NC(=O)[C@@H]2C[C@@H](O)CN2C(=O)[C@H](C(C)C)n2cc(-c3ccc(COc4c(-c5c(C)c(F)cc6[nH]ncc56)c(C5CC5)cc5c(N6CCOCC(C)(O)C6)nc(OC[C@H](C)OC)nc45)cc3)nn2)cc1 (stereo partly drawn) [Example 161, (2S,4R)-1-((2S)-2-(4-(4-(((6-cyclopropyl-7-(6-fluoro-5-methyl-1H-indazol-4-yl)-4-(6-hydroxy-6-methyl-1,4-oxazepan-4-yl)-2-((S)-2-methoxypropoxy)quinazolin-8-yl)oxy)methyl)phenyl)-1H-1,2,3-triazol-1-yl)-3-methylbutanoyl)-N—((R)-1-(4-(1-ethyl-1H-pyrazol-5-yl)phenyl)-2-hydroxyethyl)-4-hydroxypyrrolidine-2-carboxamide] | 10 to 100 | < 10 | –
3 | CO[C@@H](C)COc1nc(N(C)[C@H]2CCNC2)c2cc(C3CC3)c(-c3c(C)c(F)cc4[nH]ncc34)c(OCc3ccc(-c4cn([C@H](C(=O)N5C[C@H](O)C[C@H]5C(=O)N[C@H](c5ccc(-c6scnc6C)cc5)[C@H](C)O)C(C)C)nn4)cc3)c2n1 [Example 144, (2S,4R)-1-((2S)-2-(4-(4-(((6-cyclopropyl-7-(6-fluoro-5-methyl-1H-indazol-4-yl)-2-((S)-2-methoxypropoxy)-4-(methyl((S)-pyrrolidin-3-yl)amino)quinazolin-8-yl)oxy)methyl)phenyl)-1H-1,2,3-triazol-1-yl)-3-methylbutanoyl)-4-hydroxy-N-((1R,2S)-2-hydroxy-1-(4-(4-methylthiazol-5-yl)phenyl)propyl)pyrrolidine-2-carboxamide] | > 1000 | – | > 1000
4 | CCn1nccc1-c1ccc([C@@H](NC(=O)[C@@H]2C[C@@H](O)CN2C(=O)[C@H](C(C)C)n2cc(-c3ccc(COc4c(-c5c(C)c(F)cc6n[nH]cc56)c(C5CC5)cc5c(N6C[C@@H]7C[C@H]6CN7)nc(OC6CCOCC6)nc45)cc3)nn2)[C@H](C)O)c2c1CC2 [Example 84, (2S,4R)-1-((2S)-2-(4-(4-(((4-((1S,4S)-2,5-diazabicyclo[2.2.1]heptan-2-yl)-6-cyclopropyl-7-(6-fluoro-5-methyl-1H-indazol-4-yl)-2-((tetrahydro-2H-pyran-4-yl)oxy)quinazolin-8-yl)oxy)methyl)phenyl)-1H-1,2,3-triazol-1-yl)-3-methylbutanoyl)-N-((1R,2S)-1-(5-(1-ethyl-1H-pyrazol-5-yl)bicyclo[4.2.0]octa-1(6),2,4-trien-2-yl)-2-hydroxypropyl)-4-hydroxypyrrolidine-2-carboxamide] | < 10 | < 10 | –
5 | CO[C@@H](C)COc1nc(N2C[C@@H]3C[C@H]2CN3)c2cc(C3CC3)c(-c3c(C)c(F)cc4[nH]ncc34)c(OCc3ccc(-c4cn([C@H](C(=O)N5C[C@H](O)C[C@H]5C(=O)N[C@H](C#Cc5ccc6ncsc6c5)CO)C(C)C)nn4)cc3)c2n1 [Example 54, (2S,4R)-1-((2S)-2-(4-(4-(((4-((1S,4S)-2,5-diazabicyclo[2.2.1]heptan-2-yl)-6-cyclopropyl-7-(6-fluoro-5-methyl-1H-indazol-4-yl)-2-((S)-2-methoxypropoxy)quinazolin-8-yl)oxy)methyl)phenyl)-1H-1,2,3-triazol-1-yl)-3-methylbutanoyl)-N—((R)-4-(benzo[d]thiazol-6-yl)-1-hydroxybut-3-yn-2-yl)-4-hydroxypyrrolidine-2-carboxamide] | 10 to 100 | < 10 | –
6 | CO[C@@H](C)COc1nc(N2CCNCC[C@H]2C)c2cc(C3CC3)c(-c3c(C)c(F)cc4[nH]ncc34)c(OCc3ccc(-c4cn([C@H](C(=O)N5C[C@H](O)C[C@H]5C(=O)N[C@@H](CO)c5ccc(-c6scnc6C)cc5)C(C)C)nn4)cc3)c2n1 [Example 189, (2S,4R)-1-((2S)-2-(4-(4-(((6-cyclopropyl-7-(6-fluoro-5-methyl-1H-indazol-4-yl)-2-((S)-2-methoxypropoxy)-4-((R)-7-methyl-1,4-diazepan-1-yl)quinazolin-8-yl)oxy)methyl)phenyl)-1H-1,2,3-triazol-1-yl)-3-methylbutanoyl)-4-hydroxy-N—((R)-2-hydroxy-1-(4-(4-methylthiazol-5-yl)phenyl)ethyl)pyrrolidine-2-carboxamide] | < 10 | < 10 | –
7 | CCn1nccc1-c1ccc([C@H](CO)NC(=O)[C@@H]2C[C@@H](O)CN2C(=O)[C@H](C(C)C)n2cc(-c3ccc(COc4c(-c5c(C)c(F)cc6[nH]ncc56)c(C5CC5)cc5c(N6C[C@@H]7C[C@H]6CN7)nc(O[C@H]6CO[C@H]7OCC[C@H]76)nc45)cc3)nn2)cc1 [Example 56, (2S,4R)-1-((2S)-2-(4-(4-(((4-((1S,4S)-2,5-diazabicyclo[2.2.1]heptan-2-yl)-6-cyclopropyl-7-(6-fluoro-5-methyl-1H-indazol-4-yl)-2-(((3R,3aS,6aR)-hexahydrofuro[2,3-b]furan-3-yl)oxy)quinazolin-8-yl)oxy)methyl)phenyl)-1H-1,2,3-triazol-1-yl)-3-methylbutanoyl)-N—((R)-1-(4-(1-ethyl-1H-pyrazol-5-yl)phenyl)-2-hydroxyethyl)-4-hydroxypyrrolidine-2-carboxamide] | < 10 | < 10 | –
8 | CCn1nccc1-c1ccc([C@H](CO)NC(=O)[C@@H]2C[C@@H](O)CN2C(=O)[C@H](C(C)C)n2cc(-c3ccc(COc4c(-c5c(C)c(F)cc6[nH]ncc56)c(C5CC5)cc5c(N6CC7CCC(C6)N7)nc(OC6CCOCC6)nc45)cc3)nn2)cc1 [Example 35, (2S,4R)-1-((2S)-2-(4-(4-(((4-(3,8-diazabicyclo[3.2.1]octan-3-yl)-6-cyclopropyl-7-(6-fluoro-5-methyl-1H-indazol-4-yl)-2-((tetrahydro-2H-pyran-4-yl)oxy)quinazolin-8-yl)oxy)methyl)phenyl)-1H-1,2,3-triazol-1-yl)-3-methylbutanoyl)-N—((R)-1-(4-(1-ethyl-1H-pyrazol-5-yl)phenyl)-2-hydroxyethyl)-4-hydroxypyrrolidine-2-carboxamide] | 10 to 100 | < 10 | –
9 | CCn1nccc1-c1ccc([C@H](CO)NC(=O)[C@@H]2C[C@@H](O)CN2C(=O)[C@H](C(C)C)n2cc(-c3ccc(COc4c(-c5c(C)c(F)cc6[nH]ncc56)c(C5CC5)cc5c(N6CCCNCC6)nc(OC[C@@H]6CCCO6)nc45)cc3)nn2)cc1 [Example 207, (2S,4R)-1-((2S)-2-(4-(4-(((6-cyclopropyl-4-(1,4-diazepan-1-yl)-7-(6-fluoro-5-methyl-1H-indazol-4-yl)-2-(((S)-tetrahydrofuran-2-yl)methoxy)quinazolin-8-yl)oxy)methyl)phenyl)-1H-1,2,3-triazol-1-yl)-3-methylbutanoyl)-N—((R)-1-(4-(1-ethyl-1H-pyrazol-5-yl)phenyl)-2-hydroxyethyl)-4-hydroxypyrrolidine-2-carboxamide] | < 10 | < 10 | –
10 | CCn1nccc1-c1ccc([C@H](CO)NC(=O)[C@@H]2C[C@@H](O)CN2C(=O)[C@H](C(C)C)n2cc(-c3ccc(COc4c(-c5c(C)c(F)cc6[nH]ncc56)c(C5CC5)cc5c(N6C[C@@H]7C[C@H]6CN7)nc(OC[C@H](C)OC)nc45)cc3OC)nn2)cc1 [Example 45, (2S,4R)-1-((2S)-2-(4-(4-(((4-((1S,4S)-2,5-diazabicyclo[2.2.1]heptan-2-yl)-6-cyclopropyl-7-(6-fluoro-5-methyl-1H-indazol-4-yl)-2-((S)-2-methoxypropoxy)quinazolin-8-yl)oxy)methyl)-2-methoxyphenyl)-1H-1,2,3-triazol-1-yl)-3-methylbutanoyl)-N—((R)-1-(4-(1-ethyl-1H-pyrazol-5-yl)phenyl)-2-hydroxyethyl)-4-hydroxypyrrolidine-2-carboxamide] | 10 to 100 | 10 to 100 | –
11 | CCn1nccc1C#CC(CO)NC(=O)[C@@H]1C[C@@H](O)CN1C(=O)[C@H](C(C)C)n1cc(-c2ccc(COc3c(-c4c(C)c(F)cc5[nH]ncc45)c(C4CC4)cc4c(N5C[C@@H]6C[C@H]5CN6)nc(OC[C@H](C)OC)nc34)cc2)nn1 (stereo in doubt) [Example 34, (2S,4R)-1-((2S)-2-(4-(4-(((4-((1S,4S)-2,5-diazabicyclo[2.2.1]heptan-2-yl)-6-cyclopropyl-7-(6-fluoro-5-methyl-1H-indazol-4-yl)-2-((S)-2-methoxypropoxy)quinazolin-8-yl)oxy)methyl)phenyl)-1H-1,2,3-triazol-1-yl)-3-methylbutanoyl)-N—((R)-4-(1-ethyl-1H-pyrazol-5-yl)-1-hydroxybut-3-yn-2-yl)-4-hydroxypyrrolidine-2-carboxamide] | < 10 | < 10 | –
